Legend:
[1] = aqueous medium; cited from earlier work
[2] = Storage of acidic, concentrated permeate in a fridge; GAA content determined by HPLC; assay type: physicochemical; conditions: for GAA content: acidic and concentrated permeate stored in a fridge
Protocol: After fermentation and inactivation of the fermentation broth, the pH of the broth was adjusted to 1.5 using 75% w/w of H2SO4 at a temperature of 50° C. The biomass was removed by means of ultrafiltration and the temperature of the broth was kept constant at 50° C. The resulting permeate was concentrated at 80° C. and used for the crystallization step. The permeate fed to the crystallization was adjusted to pH 8 using 25% w/w of NH4OH. The formed crystals were separated by means of a suction filter and dried.
A part of the acidic and concentrated permeate was stored aside in a fridge over a period of ca. 2 weeks. The GAA content in said permeate was regularly determined by means of HPLC.
Description of the HPLC Method:
• 2.3 g ammonium dihydrogenphosphate (NH4H2PO4) and • 2.6 g di-ammonium hydrogenphosphate ((NH4)2HPO4) • dissolved in 2 L purified water
2.3 g ammonium dihydrogenphosphate (NH4H2PO4) and • 2.6 g di-ammonium hydrogenphosphate ((NH4)2HPO4) • dissolved in 1 L purified water and mixed with 1 L acetonitrile
The following gradient was used in the HPLC method: […]

GAA content ([2]; 1 Apr. 2022): 120.9 g/kg
GAA content ([2]; 7 Apr. 2022): 118.5 g/kg
GAA content ([2]; 12 Apr. 2022): 119.9 g/kg
GAA content ([2]; 13 Apr. 2022): 119.3 g/kg
degradation of the GAA in the acidic and concentrated permeate ([2]; fridge, over the 2-week period, HPLC): no degradation
Structure (SMILES): N=C(N)NCC(=O)O [GAA, guanidinoacetic acid]
pKa [1]: approximately 2.9
pKb [1]: approximately 10.91

From patent US20260226001A1, “PROCESS FOR PREPARING AN N-GUANYLAMINO ACID” (Evonik Operations GmbH, priority 2023, published 2026)
